Patent US20260102356A1, “METHOD FOR LOADING DIMERIC CD24 INTO HEK293 CELL EXTRACELLULAR VESICLES WITH ADAM10 GENE KNOCKED OUT” (Exocure Sweden AB, priority 2022, published 2026)
Several values for one entry are separate records, joined by “and”; a condition that tells them apart may be missing. Equal entries are not always repeated.

Assays:
Format in all cases: cell-based, human
PBMCs [1] = assay: PBMC inflammation model (anti-CD3/anti-CD28), IFN-γ in supernatant, Example 4; settings: for IFN-γ_pg/mL-Mean / Detected IFN-γ concentration: PBMC supernatant, anti_hCD3 + anti_hCD28 1 μg/mL, treatment 10 μg/mL, 72 h; for Detected IFN-γ concentration: single replicates
Protocol: (§1) Detection of the immunosuppressive activity of different EVs and proteins in a PBMC inflammation model: PBMCs were used for the experiment. An inflammation model was established by using 1 g/ml anti-human CD3 Antibody (coated) and 1 μg/ml anti-human CD28 Antibody (free). The positive drug (dexamethasone), free ApoE protein, and various doses of engineered dimeric ApoE-loaded EV were administered for 72 h, and their inhibitory activity on the inflammatory response of PBMCs was assessed.

PBMCs [2] = assay: PBMC inflammation model (anti-CD3/anti-CD28), IFN-γ in supernatant, Example 2; settings: anti_hCD3 + anti_hCD28 1 μg/mL, treatment 10 μg/mL, 72 h
Protocol: as §1, with “1 μg/ml” for “1 g/ml”, “free CD24-Fc” for “free ApoE”, “dimeric CD24-loaded EV and monomer CD24-loaded” for “dimeric ApoE-loaded”

PBMCs [3] = assay: PBMC inflammation model (anti-CD3/anti-CD28), IFN-γ in supernatant, Example 6
Protocol: • (1) Preparation of dimeric CD24-Exosomes: The plasmid construction, cell line screening and exosome preparation processes were consistent with those in Example 1. • (2) Loading of MyD88 Inhibitor Polypeptide: dimeric CD24 exosomes were mixed well with MyD88 inhibitor polypeptide (1 mg of MyD88 added to 1E+12 exosome particles). The solution was adjusted to a pH of 8.0 (or 9.0, 10.0) with Na2CO3, and then purified using Capto core700 to remove free MyD88 inhibitor polypeptide. The flow-through was collected to obtain CD24 exosomes loaded with MyD88 inhibitor polypeptide. The loading amount of MyD88 inhibitor polypeptide was assessed using ELISA (peptide loading technology referenced in patent: 202111263036.5). • (3) Detection of the immunosuppressive activity of different EVs and proteins in a PBMC inflammation model: PBMCs were used for the experiment. An inflammation model was established by using 1 μg/ml anti-human CD3 Antibody (coated) and 1 μg/ml anti-human CD28 Antibody (free). The positive drug (dexamethasone), free CD24-Fc fusion protein, and various doses of engineered dimeric CD24 loaded-EV and engineered dimeric CD24+MyD88 inhibitor polypeptide loaded-EV were administered for 72 h or 120 h, and their inhibitory activity on the inflammatory response of PBMCs was assessed

[4] = in vitro PBMC inflammation model

Molecule	IFN-γ_pg/mL-Mean (PBMCs [1]) [pg/mL]	Detected IFN-γ concentration (PBMCs [1])	IFN-γ_pg/mL-Mean (PBMCs [2]) [pg/mL]	Detected IFN-γ concentration (PBMCs [2]; single replicates)	IFN-γ_pg/mL-Mean (PBMCs [3]; PBMC supernatant, treatment time 72 h, treatment 10 μg/mL) [pg/mL]	Detected IFN-γ concentration (PBMCs [3]; PBMC supernatant, treatment time 72 h, treatment 10 μg/mL, single replicates)	inflammation inhibitory activity compared to the model group (PBMCs [1]; [4])	inflammation inhibitory activity compared to the model group (PBMCs [3]; [4])
C[C@@H]1C[C@H]2[C@@H]3CCC4=CC(=O)C=C[C@]4(C)[C@@]3(F)[C@@H](O)C[C@]2(C)[C@@]1(O)C(=O)CO [Dexamethasone, dexamethasone]	5.8	5.5 pg/mL and 5.8 pg/mL and 6.2 pg/mL	6.0	5.62 pg/mL and 5.78 pg/mL and 6.51 pg/mL	4.5	4.32 pg/mL and 4.76 pg/mL and 4.5 pg/mL		
ApoE: free ApoE protein, comparator	18092.0	18563 pg/mL and 17689 pg/mL and 18024 pg/mL					better inflammation inhibitory activity	better inflammation inhibitory activity
